# Results reported in PubChem BioAssay (NCI).
#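 Values below derive from 48-hour exposures of cells grown in 96-well plates, with endpoints linearly interpolated between the two concentrations bracketing the appropriate inhibition level. GI50 is the concentration that inhibits growth by half. TGI: total growth inhibition.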
# What was measured:
# Assay in all cases: growth of human tumour cells (NCI), 48 h
# SNB-19 CNS = test system: SNB-19 CNS
# TK-10 renal = test system: TK-10 renal
# HCT-15 colon = test system: HCT-15 colon
# HL-60(TB) leukemia = test system: HL-60(TB) leukemia
# OVCAR-8 ovarian = test system: OVCAR-8 ovarian
# ACHN renal = test system: ACHN renal
# HOP-92 NSCLC = test system: HOP-92 NSCLC
# HCT-116 colon = test system: HCT-116 colon
# M14 melanoma = test system: M14 melanoma
# SK-MEL-5 melanoma = test system: SK-MEL-5 melanoma
# MOLT-4 leukemia = test system: MOLT-4 leukemia
# MDA-MB-435 = test system: MDA-MB-435
# CCRF-CEM leukemia = test system: CCRF-CEM leukemia
# EKVX NSCLC = test system: EKVX NSCLC
smiles,measurement,setting,value
OCc1cn(C(c2ccccc2)(c2ccccc2)c2ccccc2)cn1,TGI,SNB-19 CNS,> 100 µM
same,TGI,TK-10 renal,> 100 µM
same,TGI,HCT-15 colon,> 100 µM
same,TGI,HL-60(TB) leukemia,> 100 µM
same,TGI,OVCAR-8 ovarian,> 100 µM
same,TGI,ACHN renal,> 100 µM
same,TGI,HOP-92 NSCLC,> 100 µM
same,TGI,HCT-116 colon,> 100 µM
same,TGI,M14 melanoma,> 100 µM
same,TGI,SK-MEL-5 melanoma,> 100 µM
same,TGI,MOLT-4 leukemia,> 100 µM
same,TGI,MDA-MB-435,> 100 µM
same,TGI,CCRF-CEM leukemia,> 100 µM
COc1ccc(C2NC(=S)Nc3c2c(=O)oc2c3ccc3ccccc32)cc1 (configuration not stated),TGI,SNB-19 CNS,> 100 µM
same,TGI,TK-10 renal,> 100 µM
same,TGI,HCT-15 colon,> 100 µM
same,TGI,HL-60(TB) leukemia,> 100 µM
same,TGI,OVCAR-8 ovarian,> 100 µM
same,TGI,ACHN renal,> 100 µM
same,TGI,HOP-92 NSCLC,> 100 µM
same,TGI,HCT-116 colon,> 100 µM
same,TGI,M14 melanoma,> 100 µM
same,TGI,SK-MEL-5 melanoma,> 100 µM
same,TGI,EKVX NSCLC,> 100 µM
same,TGI,MOLT-4 leukemia,> 100 µM
same,TGI,MDA-MB-435,> 100 µM
same,TGI,CCRF-CEM leukemia,> 100 µM
COCCNCc1ccc(-c2cc3nccc(Oc4ccc(NC(=S)NC(=O)Cc5ccc(F)cc5)cc4F)c3s2)nc1,GI50,TK-10 renal,2.45 µM
same,TGI,TK-10 renal,5.08 µM
same,GI50,OVCAR-8 ovarian,2.17 µM
same,TGI,OVCAR-8 ovarian,5.12 µM
same,GI50,ACHN renal,1.97 µM
same,TGI,ACHN renal,4.54 µM
same,GI50,HOP-92 NSCLC,1.22 µM
same,TGI,HOP-92 NSCLC,4.48 µM
same,GI50,EKVX NSCLC,2.5 µM
same,TGI,EKVX NSCLC,6.96 µM
CN(C)c1ccc(C=Nc2ccc(-c3nc4ccccc4[nH]3)cc2)cc1,TGI,SNB-19 CNS,> 100 µM
same,TGI,TK-10 renal,> 100 µM
same,TGI,HCT-15 colon,> 100 µM
same,TGI,HL-60(TB) leukemia,53.3 µM
same,TGI,OVCAR-8 ovarian,> 100 µM
same,TGI,ACHN renal,> 100 µM
same,TGI,HOP-92 NSCLC,> 100 µM
same,TGI,HCT-116 colon,> 100 µM
same,TGI,M14 melanoma,> 100 µM
same,TGI,SK-MEL-5 melanoma,> 100 µM
same,TGI,EKVX NSCLC,> 100 µM
same,TGI,MOLT-4 leukemia,> 100 µM
same,TGI,MDA-MB-435,> 100 µM
same,TGI,CCRF-CEM leukemia,> 100 µM
Clc1ccccc1/C=c1\nc(-c2ccccc2)n2c1nc1ccccc12,TGI,SNB-19 CNS,> 100 µM
same,TGI,TK-10 renal,> 100 µM
same,TGI,HCT-15 colon,> 100 µM
same,TGI,HL-60(TB) leukemia,> 100 µM
same,TGI,OVCAR-8 ovarian,> 100 µM
same,TGI,ACHN renal,> 100 µM
same,TGI,HOP-92 NSCLC,> 100 µM
same,TGI,HCT-116 colon,> 100 µM
same,TGI,M14 melanoma,> 100 µM
same,TGI,SK-MEL-5 melanoma,> 100 µM
same,TGI,EKVX NSCLC,62.9 µM
same,TGI,MOLT-4 leukemia,> 100 µM
same,TGI,MDA-MB-435,> 100 µM
same,TGI,CCRF-CEM leukemia,> 100 µM
Cn1c(=O)[nH]c2nncnc2c1=O,TGI,SNB-19 CNS,419 µM
same,TGI,HCT-15 colon,> 625 µM
same,TGI,HL-60(TB) leukemia,55.2 µM
same,TGI,OVCAR-8 ovarian,> 62.5 µM
same,TGI,HOP-92 NSCLC,71.2 µM
same,TGI,HCT-116 colon,219 µM
same,TGI,SK-MEL-5 melanoma,177 µM
same,TGI,EKVX NSCLC,289 µM
same,TGI,MOLT-4 leukemia,> 625 µM
same,TGI,CCRF-CEM leukemia,> 625 µM
O=c1[nH]c2nnc(COc3ccc(Cl)cc3Cl)n2nc1Cc1ccccc1,TGI,SNB-19 CNS,> 100 µM
same,TGI,TK-10 renal,96.5 µM
same,TGI,HCT-15 colon,> 100 µM
same,TGI,HL-60(TB) leukemia,> 100 µM
same,TGI,OVCAR-8 ovarian,53.9 µM
same,TGI,ACHN renal,> 100 µM
same,TGI,HOP-92 NSCLC,69.5 µM
same,TGI,HCT-116 colon,> 100 µM
same,TGI,M14 melanoma,> 100 µM
same,TGI,SK-MEL-5 melanoma,> 100 µM
same,TGI,EKVX NSCLC,> 100 µM
same,TGI,MOLT-4 leukemia,> 100 µM
same,TGI,MDA-MB-435,> 100 µM
same,TGI,CCRF-CEM leukemia,> 100 µM
O=C(CSc1nc2ccc([N+](=O)[O-])cc2s1)c1ccc2ccccc2c1,TGI,SNB-19 CNS,> 100 µM
same,TGI,TK-10 renal,> 100 µM
same,TGI,HCT-15 colon,> 100 µM
same,TGI,HL-60(TB) leukemia,> 100 µM
same,TGI,OVCAR-8 ovarian,> 100 µM
same,TGI,ACHN renal,> 100 µM
same,TGI,HOP-92 NSCLC,> 100 µM
same,TGI,HCT-116 colon,> 100 µM
same,TGI,M14 melanoma,> 100 µM
same,TGI,SK-MEL-5 melanoma,> 100 µM
same,TGI,EKVX NSCLC,> 100 µM
same,TGI,MOLT-4 leukemia,> 100 µM
same,TGI,MDA-MB-435,> 100 µM
same,TGI,CCRF-CEM leukemia,> 100 µM
C[N+]1(CCC(=O)c2ccco2)CC2CCC(CC2)C1 (configuration not stated),TGI,SNB-19 CNS,> 100 µM
same,TGI,TK-10 renal,> 100 µM
same,TGI,HCT-15 colon,> 100 µM
same,TGI,OVCAR-8 ovarian,> 100 µM
same,TGI,ACHN renal,> 100 µM
same,TGI,HOP-92 NSCLC,> 100 µM
same,TGI,HCT-116 colon,> 100 µM
same,TGI,M14 melanoma,> 100 µM
same,TGI,SK-MEL-5 melanoma,> 100 µM
same,TGI,EKVX NSCLC,> 100 µM
same,TGI,MOLT-4 leukemia,> 100 µM
same,TGI,MDA-MB-435,> 100 µM
COc1ccc2nc3c(C(=O)NCCN(C)C)cccc3cc2c1,TGI,SNB-19 CNS,7.58 µM
same,TGI,HCT-15 colon,9.84 µM
same,TGI,HL-60(TB) leukemia,4.64 µM
same,TGI,OVCAR-8 ovarian,4.46 µM
same,TGI,HOP-92 NSCLC,5.76 µM
same,TGI,HCT-116 colon,9.27 µM
same,TGI,SK-MEL-5 melanoma,3.28 µM
same,TGI,EKVX NSCLC,6.25 µM
same,TGI,MOLT-4 leukemia,8.4 µM
same,TGI,CCRF-CEM leukemia,8.14 µM
COc1c(CC=C(C)C)c(O)c(C(CC(C)C)c2c(O)c3c(c(C(C)=O)c2O)OC(C(C)(C)O)C3)c(O)c1C(C)=O (configuration not stated),TGI,SNB-19 CNS,> 12.5 µM
same,TGI,HCT-15 colon,> 12.5 µM
same,TGI,HL-60(TB) leukemia,7.55 µM
same,TGI,OVCAR-8 ovarian,> 12.5 µM
same,TGI,ACHN renal,> 12.5 µM
same,TGI,HOP-92 NSCLC,6.43 µM
same,TGI,HCT-116 colon,> 12.5 µM
same,TGI,M14 melanoma,> 12.5 µM
same,TGI,SK-MEL-5 melanoma,4.44 µM
same,TGI,EKVX NSCLC,> 12.5 µM
same,TGI,MOLT-4 leukemia,5.9 µM
same,TGI,MDA-MB-435,> 12.5 µM
same,TGI,CCRF-CEM leukemia,9.74 µM
O=c1ccc2nc3cc(Br)ccc3sc-2c1,TGI,SNB-19 CNS,> 100 µM
same,TGI,TK-10 renal,> 100 µM
same,TGI,HCT-15 colon,> 100 µM
same,TGI,HL-60(TB) leukemia,37.5 µM
same,TGI,ACHN renal,> 100 µM
same,TGI,HOP-92 NSCLC,> 100 µM
same,TGI,HCT-116 colon,> 100 µM
same,TGI,M14 melanoma,> 100 µM
same,TGI,SK-MEL-5 melanoma,> 100 µM
same,TGI,EKVX NSCLC,> 100 µM
same,TGI,MOLT-4 leukemia,> 100 µM
same,TGI,CCRF-CEM leukemia,72.5 µM
O=c1[nH]c(Nc2ccc(Cl)c(C(F)(F)F)c2)nc2nc[nH]c12,TGI,SNB-19 CNS,> 100 µM
same,TGI,TK-10 renal,> 100 µM
same,TGI,HCT-15 colon,> 100 µM
same,TGI,OVCAR-8 ovarian,> 100 µM
same,TGI,ACHN renal,> 100 µM
same,TGI,HOP-92 NSCLC,> 100 µM
same,TGI,HCT-116 colon,> 100 µM
same,TGI,M14 melanoma,> 100 µM
same,TGI,SK-MEL-5 melanoma,> 100 µM
same,TGI,EKVX NSCLC,> 100 µM
same,TGI,MOLT-4 leukemia,62.4 µM
same,TGI,MDA-MB-435,> 100 µM
same,TGI,CCRF-CEM leukemia,45.4 µM
c1ccc(-c2nnn3c2NC2=C(CCCC2)C3c2ccccc2)cc1 (configuration not stated),TGI,SNB-19 CNS,> 100 µM
same,TGI,HCT-15 colon,3.04 µM
same,TGI,HL-60(TB) leukemia,37.2 µM
same,TGI,OVCAR-8 ovarian,5.44 µM
same,TGI,ACHN renal,3.09 µM
same,TGI,HCT-116 colon,24.3 µM
same,TGI,M14 melanoma,35.5 µM
same,TGI,SK-MEL-5 melanoma,30.1 µM
same,TGI,MOLT-4 leukemia,24.7 µM
same,TGI,MDA-MB-435,20.8 µM
same,TGI,CCRF-CEM leukemia,31.1 µM
CC1=CC(=O)CC(C)(C)C1/C=C/C(C)=C/C=C/C(C)=C/C=C/C=C(C)/C=C/C=C(C)/C=C/C1C(C)=CC(=O)CC1(C)C (configuration not stated),TGI,TK-10 renal,> 100 µM
same,TGI,HCT-15 colon,85 µM
same,TGI,HL-60(TB) leukemia,> 100 µM
same,TGI,OVCAR-8 ovarian,49 µM
same,TGI,ACHN renal,> 100 µM
same,TGI,HOP-92 NSCLC,62.8 µM
same,TGI,HCT-116 colon,55.1 µM
same,TGI,M14 melanoma,> 100 µM
same,TGI,SK-MEL-5 melanoma,> 100 µM
same,TGI,EKVX NSCLC,> 100 µM
same,TGI,MOLT-4 leukemia,> 100 µM
same,TGI,MDA-MB-435,71.4 µM
same,TGI,CCRF-CEM leukemia,> 100 µM
